Reference: patent US10258602B2 (Ocera Therapeutics, Inc., priority 2007, dated 2019)

How the values were obtained:
hGHS-R1a = target: T1, hGHS-R1a (Homo sapiens, UniProt Q92847); test: Activation-desensitization profile, Ca2+ flux in HEK293 cells stably expressing hGHS-R1a; assay type: cell-based; settings: higher positive = less desensitization potential
T1 construct: expressed in transfected cells
Experimental: M. Activation-Desensitization Profile
It is well-known that agonists of G-protein coupled receptors can induce desensitization or tachyphylaxis, thereby limiting the potential of agents acting at the receptor as therapeutics for chronic use.
• 1. […] Agonist-induced Ca^+2 fluxes were measured after loading with Ca^+2 indicator Fluo-4-AM. • 3. […] Results

human plasma = settings: reference controls; cited from earlier work
[1] = Pharmacokinetic analysis (oral bioavailability, elimination half-life) in the rat; assay type: in vivo
Source text: D. Pharmacokinetic Analysis of Representative Compounds of the Invention
The pharmacokinetic behavior of compound of the invention can be ascertained by methods well known to those skilled in the art. (Wilkinson, G. R. “Pharmacokinetics: The Dynamics of Drug Absorption, Distribution, and Elimination” in Goodman & Gilman's The Pharmacological Basis of Therapeutics, Tenth Edition, Hardman, J. G.; Limbird, L. E., Eds., McGraw Hill, Columbus, Ohio, 2001, Chapter 1.) The following method was used to investigate the pharmacokinetic parameters (elimination half-life, total plasma clearance, etc.) for intravenous, subcutaneous and oral administration of compounds of the present invention. See also U.S. patent application Ser. No. 11/149,512 and Ser. No. 11/149,731 and Intl. Pat. Appl. No. PCT/US2007/017905.
The table below presents oral bioavailability and elimination half-life data in the rat for representative compounds of the present invention. The parameters were determined by HPLC-MS after oral administration of an 8 mg/kg dose of the compound, except for compound 822 where a 2 mg/kg dose was used.

[2] = Plasma protein binding, human plasma (equilibrium dialysis); assay type: in vitro ADME; settings: test concentration 3 μg/mL
Source text: J. Plasma Protein Binding
The pharmacokinetic and pharmacodynamic properties of drugs are largely a function of the reversible binding of drugs to plasma or serum proteins such as albumin and α1-acid glycoprotein. In general, only unbound drug is available for diffusion or transport across cell membranes, and for interaction at the pharmacological target. On the other hand, drugs with low plasma protein binding generally have large volumes of distribution and rapid clearance since only unbound drug is available for glomerular filtration and, in some cases, hepatic clearance. Thus, the extent of plasma protein binding can influence efficacy, distribution and elimination. The ideal range for plasma protein binding is in the range of 87-98% for most drug products.
Protein binding studies were performed using human plasma. Briefly, 96-well microplates were used to incubate various concentrations of the test article for 60 min at 37° C. Bound and unbound fractions are separated by equilibrium dialysis, where the concentration remaining in the unbound fraction is quantified by LC-MS or LC-MS-MS analysis. […].
The table below presents protein binding data for representative compounds of the present invention in both human and rat plasma.

[3] = test system: rat stomach fundus strips; test: tissue or blood; settings: read-out: EC50 values for contractility
Experimental: Fundus strips (approximately 0.4×1 cm) were cut from the stomach of adult male Wistar rats parallel to the circular muscle fibers. They were placed between two platinum ring electrodes, 1 cm apart (Radnoti, ADInstruments, USA) in 10 ml tissue baths containing Krebs solution bubbled with 5% CO2 in O2 and maintained at 37° C. Tissues were suspended under 1.5 g resting tension. Changes of tension were measured isometrically with force transducers and recorded with a PowerLab 8/30 data acquisition system (ADInstruments, USA). Tissues were allowed to equilibrate for 60 min during which time bath solutions were changed every 15 min.
EFS was achieved by applying 0.5 ms pulses, 5 Hz frequency, at a maximally effective voltage of 70 V. EFS was applied for 30 sec at 3 min intervals for a 30 min initial period. This initial period was separated by a 5 min interval with wash out of the bath solution. Then, a second period of stimulation was started. […] Responses to the agents were measured and expressed as % of the mean of three or four pre-drug responses to EFS. All compounds were dissolved at 1 mM in distilled water or MeOH, as stock solutions.

[4] = target: human growth hormone secretagogue receptor (hGHS-R1a) (Homo sapiens, UniProt Q92847); test: Competitive radioligand binding assay (ghrelin receptor), standard method A
Chain of human growth hormone secretagogue receptor (hGHS-R1a) (Q92847 whole entry): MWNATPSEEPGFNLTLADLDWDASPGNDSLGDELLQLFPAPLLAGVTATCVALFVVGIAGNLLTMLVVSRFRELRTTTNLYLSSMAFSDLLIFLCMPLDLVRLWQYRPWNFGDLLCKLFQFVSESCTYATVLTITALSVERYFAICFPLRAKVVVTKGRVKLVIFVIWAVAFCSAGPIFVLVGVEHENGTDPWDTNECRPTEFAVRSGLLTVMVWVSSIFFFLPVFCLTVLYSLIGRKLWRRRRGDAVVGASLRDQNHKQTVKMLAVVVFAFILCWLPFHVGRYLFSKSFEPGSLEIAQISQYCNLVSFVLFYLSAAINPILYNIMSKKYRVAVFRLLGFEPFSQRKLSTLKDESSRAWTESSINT

in vitro = settings: human, Caco-2
Experimental: L. Determination of Caco-2 Permeability
Fully differentiated cell monolayers can be used to assess the membrane transport properties of novel compounds.
Permeability across the Caco-2 cell layer was determined by growing the cells on a membrane placed between two (donor and acceptor) chambers. […] Permeability in this direction represents intestinal absorption. Permeability may also be determined from the basolateral to the apical side of the Caco-2 cell. A higher apical to basolateral Papp, compared to the basolateral to apical Papp, is indicative of carrier-mediated transport.
Permeability (10 μM) for compounds of the invention in the apical to basolateral and basolateral to apical direction were tested in duplicate. Samples will be collected from the donor and acceptor chambers at the beginning (0 min) and following 60 min of incubation at 37° C. and stored frozen at −70° C. until bioanalysis. Samples for each test compound generated from the Caco-2 permeability assay were further analyzed by LC-MS-MS. The permeability of [^3H]-mannitol and [^3H]-propranolol were determined in parallel as controls.
The permeability coefficient (Papp) of each compound and radiolabeled standard was determined using the following equation:
where dQ/dT represents the permeability rate, Ci denotes the initial concentration in the donor compartment, and A represents the surface area of the filter. Ci is determined from the mean concentration of duplicate samples taken prior to addition to the donor compartment. Permeability rates were calculated by plotting the cumulative amount of compound measured in the acceptor compartment over time and determining the slope of the line by linear regression analysis. The duplicate and mean apical to basolateral and basolateral to apical Papp's were reported for each compound and standard.

fasted rats = test: Gastric emptying in fasted rat model, standard method E; assay type: in vivo; settings: average where repeated
Experimental: E. Gastric Emptying in Fasted Rat Model
To examine the effects of compounds of the invention in a model for gastroparesis, compounds were evaluated for possible effects on gastric emptying in fasted rats. This model is used to determine the potential of compounds of the invention to promote motility in fasted rats.
• 1. Overnight-fasted rats (male, Wistar, 200 g, n=5/group) were given a meal (2 mL) of methylcellulose (2%) by intragastric gavage. The meal was labeled with phenol red (0.05%). • 2. Test articles (dosed at various concentrations, typically 1, 3, 10, 30 mg/kg), vehicle and positive control (metoclopramide, a 5-HT ligand and prokinetic agent currently prescribed for the treatment of GI disorders, including gastroparesis) were administered by oral gavage immediately after the meal (time=0). • 3. […] Total phenol red remaining in the stomach was quantified by a colorimetric method at 560 nm. • 5. A 30% or more increase in gastric emptying (as compared to the vehicle control) was considered significant. • 6. One-way ANOVA, Dunnet's post-hoc statistical test was applied Results
The effects of representative compounds of the invention in the rat gastric emptying model described in standard method E are provided in the following table. In cases where an experiment was conducted multiple times, the average of the individual results is presented.

T1 sequence (Q92847 whole entry): as above

Structure (SMILES) | Δ(activity-desensitization) (pEC50 − pDC50) (hGHS-R1a) | known plasma protein binding values (human plasma) | Oral Bioavailability (rat, % F) ([1]; oral administration, 8 mg/kg dose, HPLC-MS) | bioavailability ([1]; plasma, 8 mg/kg, oral administration (Example 3)) | half-life ([1]; plasma, oral administration, 8 mg/kg dose, HPLC-MS, read-out: Elimination Half-life (t1/2, rat, min)) | fraction unbound at 60 min, 3 μg/mL [2] | EC50 [3] | Ki [4] | Papp A→B at 60 min, 10 μM (in vitro) | Papp B→A at 60 min, 10 μM (in vitro) | efflux ratio at 60 min, 10 μM (in vitro) | Percent Increase in Gastric Emptying After Oral Administration (fasted rats; dose 3 mg/kg) | Percent Increase in Gastric Emptying After Oral Administration (fasted rats; dose 10 mg/kg) | Percent Increase in Gastric Emptying After Oral Administration (fasted rats; dose 30 mg/kg)
CN1N=C2CCN(C(=O)[C@@H](COCc3ccccc3)NC(=O)C(C)(C)N)C[C@@]2(Cc2ccccc2)C1=O [Capromorelin, capromorelin, reference compound] | 0.91 | – | – | – | – | – | – | – | – | – | – | – | – | –
CC(=O)CC(c1ccccc1)c1c(O)c2ccccc2oc1=O (stereo not drawn) [warfarin] | – | ~98% | – | – | – | – | – | – | – | – | – | – | – | –
CC(C)C[C@H]1NC(=O)[C@@H](C)N(C)C(=O)[C@H](C2CCCCC2)NC[C@H]2CCc3cccc(c3O2)CCCNC1=O [Compound 801] | 3.30 | – | 4 % F | 4% | 42 min | 0.116 | 300 nM | ≤ 1 nM | 163 ×10⁻⁶ cm/s | 110 ×10⁻⁶ cm/s | 0.672 | 27% | 31% | 40%
